Measurements published in patent US10323043B2, “Derivatives of macrocyclic N-aryl-tricyclopyrimidine-2-amine polyethers as inhibitors of FTL3 and JAK” (PIERRE FABRE MEDICAMENT, priority 2014, dated 2019).
pEC50, pIC50: −log10 of the molar value.

How the values were obtained:
JAK2 = target: T1, JAK2 (Homo sapiens, UniProt O60674); assay: LanthaScreen TR-FRET binding test, JAK2; settings: recombinant JAK2 15 nM, kinase tracer 236 150 nM, 25° C., 1 hour; read-out: Inhibition (IC50) of JAK2 enzyme
T1 construct: purchased Life Technologies PV4210
T1 sequence (O60674 whole entry): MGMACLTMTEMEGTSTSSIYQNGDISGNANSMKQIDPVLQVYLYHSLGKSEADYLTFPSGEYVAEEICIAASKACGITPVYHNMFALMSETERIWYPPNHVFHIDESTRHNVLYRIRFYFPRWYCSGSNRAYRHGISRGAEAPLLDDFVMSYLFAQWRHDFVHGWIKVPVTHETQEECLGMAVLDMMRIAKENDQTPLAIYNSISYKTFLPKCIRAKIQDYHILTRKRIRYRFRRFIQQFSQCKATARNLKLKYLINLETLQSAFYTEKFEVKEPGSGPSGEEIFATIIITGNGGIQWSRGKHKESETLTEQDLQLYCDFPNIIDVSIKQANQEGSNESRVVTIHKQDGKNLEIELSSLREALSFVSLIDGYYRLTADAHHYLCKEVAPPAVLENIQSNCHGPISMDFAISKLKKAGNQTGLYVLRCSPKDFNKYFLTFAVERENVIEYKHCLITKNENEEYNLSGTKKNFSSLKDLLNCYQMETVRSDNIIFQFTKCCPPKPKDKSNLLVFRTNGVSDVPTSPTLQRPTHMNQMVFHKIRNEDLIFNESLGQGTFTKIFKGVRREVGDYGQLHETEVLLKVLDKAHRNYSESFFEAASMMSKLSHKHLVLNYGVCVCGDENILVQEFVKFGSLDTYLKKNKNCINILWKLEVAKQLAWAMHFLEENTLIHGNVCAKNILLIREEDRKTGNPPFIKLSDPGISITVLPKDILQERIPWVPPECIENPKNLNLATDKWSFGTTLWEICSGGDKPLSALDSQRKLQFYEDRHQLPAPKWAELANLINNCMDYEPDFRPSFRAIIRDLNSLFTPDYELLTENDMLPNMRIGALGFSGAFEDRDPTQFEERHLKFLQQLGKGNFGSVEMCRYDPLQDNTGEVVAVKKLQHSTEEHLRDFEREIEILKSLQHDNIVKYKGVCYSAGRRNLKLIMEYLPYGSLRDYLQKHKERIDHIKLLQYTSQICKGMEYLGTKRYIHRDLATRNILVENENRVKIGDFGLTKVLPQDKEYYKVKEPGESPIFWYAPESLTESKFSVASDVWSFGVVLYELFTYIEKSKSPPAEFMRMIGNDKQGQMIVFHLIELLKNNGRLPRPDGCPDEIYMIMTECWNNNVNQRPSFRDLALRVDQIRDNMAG
Procedure: (§1) FLT3 (#PV3182), JAK2 (#PV4210) and JAK3 (#PV3855) recombinant enzymes were purchased from Life Technologies. FLT3-ITD (#0778-0000-1) and FLT3^D835Y (#14-610) proteins were purchased from ProQinase and Merck Millipore, respectively. All the tests were carried out in 384-well plates. The principle of these binding tests is based on the LanthaScreen® TR-FRET methodology from Life Technologies.
(§2) The reaction mixture (15 μL total volume) contains the following compounds: 15 nM JAK2 or JAK3, 150 nM kinase tracer 236 (Life Technologies, #PV5592) for JAK2 or 3 nM for JAK3 and 6 nM LanthaScreen® anti-GST antibody coupled to a europium chelate (Life Technologies, #PV5594) for both enzymes.
(§3) The compounds are evaluated at 8 different concentrations prepared by making dilutions from a starting 10 mM stock solution in dimethylsulfoxide (DMSO) (Sigma, #D8418). The final DMSO concentration in the test is 1%. The reaction is carried out at 25° C. for 1 hour and detected on the EnVision® reader (Perkin Elmer) according to the recommendations of the supplier, Life Technologies.
(§4) The results are presented (Table 1) as the concentration values of the compound at which 50% of the kinase activity is inhibited, IC50 (μM), generated using the PRISM software (GraphPad).

JAK3 = target: T2, JAK3 (Homo sapiens, UniProt P52333); assay: LanthaScreen TR-FRET binding test, JAK3; settings: recombinant JAK3 15 nM, kinase tracer 236 3 nM, 25° C., 1 hour; read-out: Inhibition (IC50) of JAK3 enzyme
T2 construct: purchased Life Technologies PV3855
T2 sequence (P52333 1-1124): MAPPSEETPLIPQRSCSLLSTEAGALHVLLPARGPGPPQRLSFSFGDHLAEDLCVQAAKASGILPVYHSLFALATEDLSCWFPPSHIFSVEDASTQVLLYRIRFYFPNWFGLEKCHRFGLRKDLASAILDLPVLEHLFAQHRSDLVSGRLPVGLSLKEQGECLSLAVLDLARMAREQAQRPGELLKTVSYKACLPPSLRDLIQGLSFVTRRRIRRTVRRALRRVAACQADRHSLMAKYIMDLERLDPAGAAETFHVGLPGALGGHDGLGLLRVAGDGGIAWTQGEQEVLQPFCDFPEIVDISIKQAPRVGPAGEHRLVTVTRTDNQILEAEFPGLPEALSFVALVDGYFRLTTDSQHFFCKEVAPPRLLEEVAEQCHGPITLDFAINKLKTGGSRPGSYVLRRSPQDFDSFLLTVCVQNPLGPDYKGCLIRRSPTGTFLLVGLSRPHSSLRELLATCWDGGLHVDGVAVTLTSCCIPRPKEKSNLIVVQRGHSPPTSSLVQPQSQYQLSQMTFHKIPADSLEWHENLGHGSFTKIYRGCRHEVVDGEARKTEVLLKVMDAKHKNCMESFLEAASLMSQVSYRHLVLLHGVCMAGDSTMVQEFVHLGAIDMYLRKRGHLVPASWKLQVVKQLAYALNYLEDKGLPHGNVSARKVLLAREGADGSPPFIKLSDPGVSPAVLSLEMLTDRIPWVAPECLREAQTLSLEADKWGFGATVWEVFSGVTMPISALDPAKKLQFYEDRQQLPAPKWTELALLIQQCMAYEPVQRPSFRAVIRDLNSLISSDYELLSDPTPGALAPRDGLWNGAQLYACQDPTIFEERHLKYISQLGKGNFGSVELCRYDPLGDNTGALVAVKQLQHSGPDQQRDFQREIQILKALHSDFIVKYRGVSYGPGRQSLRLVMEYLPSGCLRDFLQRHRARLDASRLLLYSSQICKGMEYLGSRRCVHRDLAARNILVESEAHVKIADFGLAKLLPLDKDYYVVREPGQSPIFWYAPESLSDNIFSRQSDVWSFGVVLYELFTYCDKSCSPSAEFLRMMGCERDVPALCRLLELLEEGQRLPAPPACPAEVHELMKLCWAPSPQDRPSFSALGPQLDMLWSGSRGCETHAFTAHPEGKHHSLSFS
Procedure: as §1, §2, §3, §4

MV4-11 cell line = assay: Antiproliferative activity (ATPLite cell viability), MV4-11; type: cell-based; settings: Homo sapiens, MV4-11 (acute myeloid leukemia, FLT3-ITD), 72 h incubation, read-out: Cytotoxicity (EC50) on MV411 cell line
Procedure: (§5) The characteristics of the cell lines used are as follows (Table 2):
(§6) MV4-11 and MOLM-13 cell lines are cultured in the culture medium specified in Table 2 above and according to the supplier's recommendations. The tests are carried out in 96-well plates. The cells are divided in two at D0. At D1, they are seeded and treated with the compounds at various concentrations and incubated for 72 h at 37° C. and 5% CO2. The dilution of the compounds from stock solutions in DMSO (Sigma, #D8418) was made semi-logarithmically for a final concentration in the culture medium of 0.1%. At day 4, cell viability is evaluated by assaying the ATP released by the living cells using the ATPLite® kit (Perkin Elmer, #6016947). The EC50 values (concentration of the compound necessary to obtain 50% of the maximum effect) are calculated using curve-fitting software.

MOLM-13 cell line = assay: Antiproliferative activity (ATPLite cell viability), MOLM-13; type: cell-based; settings: Homo sapiens, MOLM-13 (acute myeloid leukemia, FLT3-ITD), 72 h incubation, read-out: Cytotoxicity (EC50) on MOLM13 cell line
Procedure: as §5, §6

| pIC50 (JAK2) | pIC50 (JAK3) | SMILES | pEC50 (MV4-11 cell line) | pEC50 (MOLM-13 cell line) |
| --- | --- | --- | --- | --- |
| 8.11 | 7.22 | c1cc(N2CCC(N3CCCCC3)CC2)c2cc1Nc1ncc3c(n1)-c1cc(ccc1CC3)OCCOCCO2 [Compound 10] | 8.19 | 8.22 |
| 8.14 | 7.75 | CN1CCN(c2ccc3cc2OCCOCCOc2ccc4c(c2)-c2nc(ncc2CC4)N3)CC1(C)C [Compound 40] | 7.68 | 7.70 |
| 7.94 | 7.74 | c1cc(N2CC3CNCC3C2)c2cc1Nc1ncc3c(n1)-c1cc(ccc1CC3)OCCOCCO2 (stereo not drawn) [Compound 29] | 8.12 | 7.82 |
| 7.47 | 7.46 | c1cc(N2C[C@H]3C[C@@H]2CN3)c2cc1Nc1ncc3c(n1)-c1cc(ccc1CC3)OCCOCCO2 [Compound 44] | 8.00 | 8.06 |
| 7.47 | 7.15 | c1cc(OCCN2CCCC2)c2cc1Nc1ncc3c(n1)-c1cc(ccc1CC3)OCCOCCO2 [Compound 14] | 8.04 | 8.35 |
| 7.70 | 7.52 | OC1CCN(c2ccc3cc2OCCOCCOc2ccc4c(c2)-c2nc(ncc2CC4)N3)CC1 [Compound 19] | 7.92 | 7.87 |
| 6.89 | 6.96 | CN1CC=C(c2ccc3cc2OCCOCCOc2ccc4c(c2)-c2nc(ncc2CC4)N3)CC1 [Compound 23] | 7.70 | 8.18 |
| 7.89 | 7.52 | c1cc(N2CCNCC2)c2cc1Nc1ncc3c(n1)-c1cc(ccc1CC3)OCCOCCO2 [Compound 5] | 8.14 | 8.74 |
| 7.40 | 6.92 | c1cc(N2CCC(N3CCOCC3)C2)c2cc1Nc1ncc3c(n1)-c1cc(ccc1CC3)OCCOCCO2 (stereo not drawn) [Compound 7] | 7.40 | 7.47 |
| 7.76 | 7.27 | CN1CCN(c2ccc3cc2OCCOCCOc2ccc4c(c2)-c2nc(ncc2CC4)N3)CC1 [Compound 3] | 8.55 | 8.25 |
| 8.00 | 7.74 | CN(C)C1CCN(c2ccc3cc2OCCOCCOc2ccc4c(c2)-c2nc(ncc2CC4)N3)C1 (stereo not drawn) [Compound 30] | 7.92 | 7.82 |

| SMILES | pIC50 (JAK2) | pIC50 (JAK3) | pEC50 (MV4-11 cell line) | pEC50 (MOLM-13 cell line) |
| --- | --- | --- | --- | --- |
| c1cc(N2CC3CCC(C2)N3)c2cc1Nc1ncc3c(n1)-c1cc(ccc1CC3)OCCOCCO2 [Compound 42] | 8.17 | 7.89 | 8.52 | 8.15 |
